Data reported in patent publication US8546409B2, “Methods of treatment for solid tumors” (priority 2009, dated 2013).
Entries after “also recorded” stand apart in the source; their conditions may differ. Like-named read-outs stand apart in the source and are kept apart here.

What was measured:
[1] = tested on: SN12C; test: NCI panel growth inhibition, SN12C; type: cell-based; settings: Homo sapiens, Renal
From the text: (§1) Compound I has also been tested in a battery of tumor cell assays known as the NCI panel.

[2] = tested on: NCI-H322M; test: NCI panel growth inhibition, NCI-H322M; type: cell-based; settings: Homo sapiens, Non-Small Cell Lung Cancer
From the text: as §1

[3] = tested on: SNB-75; test: NCI panel growth inhibition, SNB-75; type: cell-based; settings: Homo sapiens, CNS Cancer
From the text: as §1

[4] = Half-life in vivo in rats
From the text: Treatments of the invention typically involve administration of compound Ito a subject in need of treatment on a daily basis for at least one week or more than one week, often for 2-4 weeks, and sometimes for 1-3 months or more. The half-life of Compound I in vivo in mice and rats is several hours—see FIG. 6. It is thus sometimes desirable to administer compound I in multiple doses each day, in order to maintain efficacious plasma levels over a prolonged period of time. Administration may be done in two doses per day, or three doses per day, or in some embodiments, four doses per day or more, particularly when Compound I is administered orally. Alternatively, Compound I can be administered intravenously at a rate that maintains an efficacious plasma level for a prolonged period of time. Suitably, it would be administered at a rate to achieve a plasma level of at least about 1 micromolar, or at least 3 micromolar, or at least 5 micromolar.

[5] = tested on: MALME-3M; test: NCI panel growth inhibition, MALME-3M; type: cell-based; settings: Homo sapiens, Melanoma
From the text: as §1

[6] = biological target: p110α (Homo sapiens, UniProt P42336); test: Chick embryo fibroblast (CEF) transformation assay, p110α; type: cell-based; settings: read-out: EC-50 for functional activity of p110α, highest concentration tested 2000 nM
Sequence of p110α (P42336 whole entry, stated change not applied, canonical isoform): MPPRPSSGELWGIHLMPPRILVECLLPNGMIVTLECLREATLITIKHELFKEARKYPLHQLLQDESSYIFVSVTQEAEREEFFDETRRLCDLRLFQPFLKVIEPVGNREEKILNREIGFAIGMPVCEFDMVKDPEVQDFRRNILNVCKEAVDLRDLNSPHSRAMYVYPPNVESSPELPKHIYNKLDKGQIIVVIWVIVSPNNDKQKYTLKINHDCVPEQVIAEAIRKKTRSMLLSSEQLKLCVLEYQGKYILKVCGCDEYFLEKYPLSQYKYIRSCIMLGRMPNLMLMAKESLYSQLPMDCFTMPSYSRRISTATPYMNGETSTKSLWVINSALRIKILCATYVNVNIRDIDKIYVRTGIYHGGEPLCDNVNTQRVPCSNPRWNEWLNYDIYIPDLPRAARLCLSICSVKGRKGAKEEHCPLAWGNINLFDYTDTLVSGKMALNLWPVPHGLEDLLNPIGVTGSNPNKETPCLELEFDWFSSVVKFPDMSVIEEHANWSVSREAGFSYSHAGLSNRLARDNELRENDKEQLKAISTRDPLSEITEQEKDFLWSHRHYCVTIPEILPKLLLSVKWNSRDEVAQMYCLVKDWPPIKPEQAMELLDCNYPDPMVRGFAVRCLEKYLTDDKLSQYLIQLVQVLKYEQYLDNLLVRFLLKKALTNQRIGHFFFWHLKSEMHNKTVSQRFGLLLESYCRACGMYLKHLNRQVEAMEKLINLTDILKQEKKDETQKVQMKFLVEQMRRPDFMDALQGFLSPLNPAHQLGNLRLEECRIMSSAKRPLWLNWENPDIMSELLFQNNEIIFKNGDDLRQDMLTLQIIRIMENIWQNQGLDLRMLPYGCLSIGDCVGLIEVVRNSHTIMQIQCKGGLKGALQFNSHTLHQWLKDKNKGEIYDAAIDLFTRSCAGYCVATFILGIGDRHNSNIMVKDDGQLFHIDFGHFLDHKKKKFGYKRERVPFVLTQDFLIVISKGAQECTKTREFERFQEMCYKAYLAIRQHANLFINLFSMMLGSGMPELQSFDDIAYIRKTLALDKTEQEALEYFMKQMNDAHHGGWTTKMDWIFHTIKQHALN
From the text: (§2) Moreover, compound I has comparatively low activity on p110α in a cell-transformation system designed to measure functional activity of these kinases, but is a potent inhibitor of both p110β and p110δ in that assay. See Example 1. This chick embryo fibroblast (CEF) transformation system has been reported as a useful way to assess the functional activity of the PI3K signaling pathway. Denley, et al., “Oncogenic signaling of class I PI3K isoforms,” Oncogene, vol. 27(18), 2561-74 (2008). Transformation of CEF cells in the assay depends upon functional kinase activity. Kang, et al., Proc. Nat'l Acad. Sci. USA, vol. 103(5), 1289-94 (2006). The readout of this assay is based on the frequency of transformation of CEF cells exposed to viral vectors carrying a specific p110 isoform of interest.
(§3) Chick embryo fibroblasts (CEF) are transduced with viral stocks with versions of the human genes for the individual PI3K isoforms p110α, p110β, p110δ and p110γ. These transduced CEF lines are then plated in a growth medium where oncogenically transformed cells form foci that can then be stained and counted. […] Denley A, Kang S, Karst U and Vogt PK, “Oncogenic signaling of class 1 PI3K isoforms.” Oncogene (2008) 27: 2561-2574. FIG. 3 illustrates the readout of this assay.

[7] = tested on: CAKI-1; test: NCI panel growth inhibition, CAKI-1; type: cell-based; settings: Homo sapiens, Renal
From the text: as §1

[8] = biological target: T1, p110δ (Homo sapiens, UniProt O00329); test: Chick embryo fibroblast (CEF) transformation assay, p110δ; type: cell-based; settings: read-out: EC-50 for inhibition of functional activity of p110δ
T1 construct: expressed in transfected cells; host or cells: chick embryo fibroblasts (CEF), viral transduction
T1 sequence (O00329 whole entry): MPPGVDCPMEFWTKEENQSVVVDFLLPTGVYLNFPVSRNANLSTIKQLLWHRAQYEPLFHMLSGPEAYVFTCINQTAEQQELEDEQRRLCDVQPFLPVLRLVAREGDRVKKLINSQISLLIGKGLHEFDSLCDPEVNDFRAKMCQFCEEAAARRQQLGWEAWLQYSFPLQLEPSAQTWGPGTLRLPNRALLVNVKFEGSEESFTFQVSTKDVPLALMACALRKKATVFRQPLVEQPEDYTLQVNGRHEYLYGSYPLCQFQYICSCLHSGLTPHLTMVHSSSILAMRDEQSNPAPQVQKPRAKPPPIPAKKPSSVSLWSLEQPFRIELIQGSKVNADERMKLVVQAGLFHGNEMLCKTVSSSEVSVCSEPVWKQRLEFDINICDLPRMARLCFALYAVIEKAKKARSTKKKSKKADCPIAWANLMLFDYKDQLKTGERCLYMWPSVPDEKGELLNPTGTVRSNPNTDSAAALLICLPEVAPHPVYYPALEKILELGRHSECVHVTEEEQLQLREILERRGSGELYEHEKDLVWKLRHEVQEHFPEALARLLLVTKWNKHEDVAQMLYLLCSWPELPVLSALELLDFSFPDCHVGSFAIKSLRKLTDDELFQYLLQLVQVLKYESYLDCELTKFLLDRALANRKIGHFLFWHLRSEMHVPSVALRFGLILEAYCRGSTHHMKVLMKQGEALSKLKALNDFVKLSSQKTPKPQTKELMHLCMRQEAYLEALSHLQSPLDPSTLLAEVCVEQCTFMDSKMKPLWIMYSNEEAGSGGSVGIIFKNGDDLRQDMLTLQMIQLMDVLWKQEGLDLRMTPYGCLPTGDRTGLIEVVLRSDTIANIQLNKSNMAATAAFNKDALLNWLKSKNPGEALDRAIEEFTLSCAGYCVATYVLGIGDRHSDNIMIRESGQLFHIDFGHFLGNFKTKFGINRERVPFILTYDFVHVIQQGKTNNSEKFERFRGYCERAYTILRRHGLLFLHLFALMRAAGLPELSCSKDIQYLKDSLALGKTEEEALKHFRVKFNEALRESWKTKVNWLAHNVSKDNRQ
From the text: as §2, §3

[9] = tested on: MDA-MB-435; test: NCI panel growth inhibition, MDA-MB-435; type: cell-based; settings: Homo sapiens, Breast Cancer
From the text: as §1

[10] = tested on: OVCAR-5; test: NCI panel growth inhibition, OVCAR-5; type: cell-based; settings: Homo sapiens, Ovarian
From the text: as §1

[11] = tested on: SF-268; test: NCI panel growth inhibition, SF-268; type: cell-based; settings: Homo sapiens, CNS Cancer
From the text: as §1

[12] = tested on: UACC-257; test: NCI panel growth inhibition, UACC-257; type: cell-based; settings: Homo sapiens, Melanoma
From the text: as §1

[13] = tested on: SF-295; test: NCI panel growth inhibition, SF-295; type: cell-based; settings: Homo sapiens, CNS Cancer
From the text: as §1

[14] = tested on: 786-0; test: NCI panel growth inhibition, 786-0; type: cell-based; settings: Homo sapiens, Renal
From the text: as §1

[15] = tested on: OVCAR-3 xenografts; test: Ovarian cancer cell xenografts in nu/nu mice (FIG. 8); type: in vivo; settings: 30 mg/kg BID, 36 days, female nu/nu mice
Protocol: Female nu/nu mice bearing OVCAR-3 xenografts (human ovarian cancer cells) were maintained until tumor volume measured about 100 mm^3. At that point, treatment began with compound I at a rate of 30 mg/kg administered twice per day.

[16] = biological target: T2, p110γ (Homo sapiens, UniProt P48736); test: Cell-based p110γ assay: fMLP stimulated CD63 movement to surface of basophils
T2 construct: endogenous in cells; host or cells: basophils
T2 sequence (P48736 whole entry, species assumed): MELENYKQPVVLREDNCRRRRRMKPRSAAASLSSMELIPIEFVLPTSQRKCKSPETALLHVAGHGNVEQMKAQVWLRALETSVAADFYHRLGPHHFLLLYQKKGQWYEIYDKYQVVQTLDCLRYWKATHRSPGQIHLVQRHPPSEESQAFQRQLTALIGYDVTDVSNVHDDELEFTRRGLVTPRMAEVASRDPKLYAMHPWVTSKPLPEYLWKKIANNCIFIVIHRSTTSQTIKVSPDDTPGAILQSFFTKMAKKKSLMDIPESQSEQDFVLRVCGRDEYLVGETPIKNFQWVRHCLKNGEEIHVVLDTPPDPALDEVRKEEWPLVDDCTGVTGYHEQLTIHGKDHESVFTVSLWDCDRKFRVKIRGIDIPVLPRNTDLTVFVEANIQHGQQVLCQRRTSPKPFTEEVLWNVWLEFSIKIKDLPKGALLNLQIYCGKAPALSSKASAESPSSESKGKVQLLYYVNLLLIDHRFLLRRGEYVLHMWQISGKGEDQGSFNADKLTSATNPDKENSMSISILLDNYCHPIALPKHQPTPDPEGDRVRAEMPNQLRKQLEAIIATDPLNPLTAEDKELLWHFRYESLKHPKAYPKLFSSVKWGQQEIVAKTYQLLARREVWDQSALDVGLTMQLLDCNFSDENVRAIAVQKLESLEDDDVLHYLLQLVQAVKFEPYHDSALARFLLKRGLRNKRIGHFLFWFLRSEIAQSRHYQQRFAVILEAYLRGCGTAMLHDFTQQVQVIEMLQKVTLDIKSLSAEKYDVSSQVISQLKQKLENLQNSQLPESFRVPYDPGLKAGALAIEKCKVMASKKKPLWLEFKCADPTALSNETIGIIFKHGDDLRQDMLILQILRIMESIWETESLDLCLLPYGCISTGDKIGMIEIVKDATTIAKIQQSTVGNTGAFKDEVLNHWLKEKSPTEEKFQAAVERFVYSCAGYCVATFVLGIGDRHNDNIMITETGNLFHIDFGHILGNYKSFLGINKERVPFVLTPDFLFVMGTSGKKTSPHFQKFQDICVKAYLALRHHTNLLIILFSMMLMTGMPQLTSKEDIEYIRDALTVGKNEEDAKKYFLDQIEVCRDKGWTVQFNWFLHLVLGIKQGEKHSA
Protocol: The p110α assay used SW3T3 cells stimulated by PDGF, and p110 kinase activity was measured by Akt phosphorylation. The p110β activity was measured by lysophosphatidic acid stimulation of Akt phosphorylation in mouse embryonic fibroblasts. The activity of p110δ was measured by anti-FcεR1 antibody cross linking stimulation of CD63 movement to the surface of basophils. Finally, the activity of p110γ was measured by fMLP stimulation of CD63 antigen movement to the cell surface of basophils.

[17] = tested on: COLO 205; test: NCI panel growth inhibition, COLO 205; type: cell-based; settings: Homo sapiens, Colon Cancer
From the text: as §1

[18] = tested on: SW-620; test: NCI panel growth inhibition, SW-620; type: cell-based; settings: Homo sapiens, Colon Cancer
From the text: as §1

[19] = tested on: HS 578T; test: NCI panel growth inhibition, HS 578T; type: cell-based; settings: Homo sapiens, Breast Cancer
From the text: as §1

[20] = tested on: HOP-92; test: NCI panel growth inhibition, HOP-92; type: cell-based; settings: Homo sapiens, Non-Small Cell Lung Cancer
From the text: as §1

[21] = tested on: ACHN; test: NCI panel growth inhibition, ACHN; type: cell-based; settings: Homo sapiens, Renal
From the text: as §1

[22] = tested on: IGROV1; test: NCI panel growth inhibition, IGROV1; type: cell-based; settings: Homo sapiens, IGROV-1, Ovarian
From the text: as §1

[23] = tested on: HCC-2998; test: NCI panel growth inhibition, HCC-2998; type: cell-based; settings: Homo sapiens, Colon Cancer
From the text: as §1

[24] = tested on: PC-3; test: NCI panel growth inhibition, PC-3; type: cell-based; settings: Homo sapiens, Prostate
From the text: as §1

[25] = tested on: U251; test: NCI panel growth inhibition, U251; type: cell-based; settings: Homo sapiens, U-251, CNS Cancer
From the text: as §1

[26] = tested on: HT29; test: NCI panel growth inhibition, HT29; type: cell-based; settings: Homo sapiens, HT-29, Colon Cancer
From the text: as §1

[27] = tested on: SK-MEL-28; test: NCI panel growth inhibition, SK-MEL-28; type: cell-based; settings: Homo sapiens, Melanoma
From the text: as §1

[28] = tested on: OVCAR-4; test: NCI panel growth inhibition, OVCAR-4; type: cell-based; settings: Homo sapiens, Ovarian
From the text: as §1

For `C[C@H](Nc1ncnc2[nH]cnc12)c1nc2ccc(F)cc2c(=O)n1-c1ccccc1` [Compound I], which GI50 [1] is on record?
Its GI50 is 22.5 µM.

What about the GI50 [2] of the same compound?
The GI50 was 10.5 µM.

And the GI50 [3]?
Its GI50 is 0.0594 µM.

And the Half-life in vivo [4]?
The Half-life in vivo was “several hours”.

And the GI50 [5]?
The GI50 was 4.58 µM.

And the EC50 [6]?
Its EC50 is greater than 2 µM.

What about the GI50 [7] of the same compound?
The GI50 was 1.01 µM.

And the EC50 [8]?
The EC50 was roughly 0.015 µM.

What about the GI50 [9] of the same compound?
Its GI50 is 43.1 µM.

What about the GI50 [10] of the same compound?
The GI50 was 27.7 µM.

What about the GI50 [11] of the same compound?
The GI50 was 1.89 µM.

And the GI50 [12]?
Its GI50 is 17.4 µM.

What about the GI50 [13] of the same compound?
The GI50 was 1.81 µM.

And the GI50 [14]?
Its GI50 is 1.99 µM.

What about the “Tumor volume of OVCAR-3 xenograft” value [15] of the same compound?
The value was “the size of the existing tumor was actually reduced; also recorded: completely inhibited growth; also recorded: Tumor volume actually decreased”.

And the EC50 ([16]; FB, read-out: Cell-based assay EC50 p110γ, FB)?
The EC50 was 3 µM.

And the EC50 ([16]; WB, read-out: Cell-based assay EC50 p110γ, WB)?
The EC50 was 5.4 µM.

And the GI50 [17]?
The GI50 was 33.8 µM.

And the GI50 [18]?
The GI50 was 69.3 µM.

What about the GI50 [19] of the same compound?
Its GI50 is 2.24 µM.

And the GI50 [20]?
Its GI50 is 0.3 µM.

And the GI50 [21]?
Its GI50 is 10.7 µM.

What about the GI50 [22] of the same compound?
Its GI50 is 2.7 µM.

What about the GI50 [23] of the same compound?
Its GI50 is 32.4 µM.

And the GI50 [24]?
The GI50 was 0.647 µM.

What about the GI50 [25] of the same compound?
The GI50 was 59.6 µM.

What about the GI50 [26] of the same compound?
The GI50 was 16.5 µM.

What about the GI50 [27] of the same compound?
The GI50 was 12.8 µM.

And the GI50 [28]?
Its GI50 is 100 µM.
